In series [1] the test system is three human clear cell renal cell carcinoma (RCC) cell lines (UMRC3, UMRC6, 786-O). Briefly: RCC cell proliferation assay, three cell lines together. The following applies: 10 μM. It counts as cell-based. As for the experimental part:
FIG. 23 provides the results of cell proliferation assays using three different RCC cell lines: (a) UMRC3, (b) UMRC6 and (c) 786-O, and compounds I-5; RCC cells were resuspended in media and treated with UV radiation (350 nm) for 10 minutes with and without indicated compounds; control cells were exposed to the indicated compound 1-5 at final concentration of 10 μM; cell numbers determined after 72 hours as described in the SI Section;
The ability of compounds 1-5 to inhibit cell proliferation in three human clear cell renal cell carcinoma (RCC) cell lines was tested in the dark and under photoactivation (FIG. 23). No difference was detected in the control experiments between cells not exposed to UV versus those that were exposed to UV at 350 nm for 10 minutes in any of the three RCC cell lines tested (FIG. 23 A, B & C; first two columns).

Series [2] can be described thus: Fluorometric (emission) determination of pKa. The series is classed as physicochemical. The following applies: emission; α-amino group (4, 6), ε-amino group (7). As for the experimental part:
(§1) General information. ^1H, ^13C and ^19F NMR were collected on a Varian Gemini 300 MHz NMR spectrometer and a Bruker 300 MHz NMR spectrometer. Mass spectrometry data was collected on a Jeol JMS-600H. UV spectra were recorded on a Shimadzu UV-2100. Fluorescence spectra were obtained with SPEX FluoMax spectrofluorimeter using right-angle geometry. pH was adjusted with AB 15 plus pH meter (Accument) after standardization at 25° C. All buffers were prepared and pH-adjusted at room temperature (25° C.). Plasmid DNA Photocleavage. pBR322 plasmid DNA (4,361 b/p; from BioLabs Inc., 1 μg/μL solution in 10 mM Tris-HCl (pH 8.0), and 1 mM EDTA buffer) was diluted to a concentration of 0.01 μg/μL. The solution containing cleavage agent, DNA (30 μM/bp) in 20 mM sodium phosphate buffer was incubated for 1 hour at 30° C. Samples were placed on ice at a distance of 20 cm from 200 W Hg—Xe lamp (Spectra-Physics, Laser & Photonics Oriel Instruments with long pass filter with 324 nm cut-off wavelength). Electrophoretic Analysis. The gel electrophoresis was carried out in 1×TBE buffer at 80 V using Miligel FisherBiotech Horizontal Electrophoresis System. All gels were run on 1% agarose slab gels. Before loading, the DNA samples were mixed with 0.33 volume of tracking dye containing bromophenol blue (0.25%) and glycerol (30%) in water. After staining in ethidium bromide solution (2 μg/ml) for 1 hour, the gel was washed with water and pictures were taken with Polaroid 3000ISO type 667 film. The relative quantities of the supercoiled, nicked, and linear DNA were calculated by integrating the “area” of each spot by the image analyzer software Total/Lab (Nonlinear Dynamics Ltd., UK). The amount of supercoiled DNA was multiplied by factor of 1.4 to account for reduced ethidium bromide intercalation into supercoiled DNA. pH titration by ^1H-NMR. pH* of compound 8 (3 mM) solution in D2O containing 0.05 wt % 3-(trimethylsilyl)propionic-2,2,3,3-d4 acid, sodium salt (TSP-d4) was adjusted with 10 wt % DCI and NaOD in D2O at 25° C. under argon purged condition. Spectrometric determinations of pKa. pH of 10 μM of compound solution in H2O was adjusted with 10, 100 mM HCl (aq) and NaOH (aq) solution under argon purged condition. Excitation wavelength was 330 nm and polymethacrylate fluorimeter cuvettes were used. Absorbance and fluorescence titration with DNA. The concentrations of calf thymus DNA stock solution was determined spectophotometrically using the following molar absorptovity values: 1.32×10^4 M^−1 cm^−1 (per base pair) at 260 nm. All experiments were done in 20 mM sodium phosphate buffer at 25° C. and polymethacrylate fluorimeter cuvettes were used. The same amount of DNA was added to both sample and reference cuvettes during UV/Vis titration. Determination of excited state lifetimes. The concentration of compound solution was 10 μM in 20 mM sodium phosphate buffer. The photoluminescence lifetime measurements were conducted by exciting the samples with the output of a Nd:VO—4 (Spectra-Physics Vanguard, 2 W, 532 nm, 76 MHz, 10 ps) pumped R6G dye laser (Coherent 702-1). The output of the dye laser (600 nm, Rhodamine 6G) was cavity dumped at 1.9 MHz and frequency doubled using a BBO crystal to excite the fluorophore (the excitation wavelength used was 290 nm). Samples were excited with <1 mW power and the emission was collected at right angles onto a Chromex S3 500 is 0.5 m imaging monochromator with a 50 g/mm grating and 0.5 nm resolution. […]

The test system of series [3] is pBR322 plasmid DNA. In words: Plasmid relaxation assay: DNA photocleavage of supercoiled plasmid under UV irradiation. The series is classed as biochemical. To be noted: pH 6, 15 μM, 10 min of UV irradiation. The method, then:
General information. ^1H, ^13C and ^19F NMR were collected on a Varian Gemini 300 MHz NMR spectrometer and a Bruker 300 MHz NMR spectrometer. Mass spectrometry data was collected on a Jeol JMS-600H. UV spectra were recorded on a Shimadzu UV-2100. Fluorescence spectra were obtained with SPEX FluoMax spectrofluorimeter using right-angle geometry. pH was adjusted with AB 15 plus pH meter (Accument) after standardization at 25° C. All buffers were prepared and pH-adjusted at room temperature (25° C.). Plasmid DNA Photocleavage. pBR322 plasmid DNA (4,361 b/p; from BioLabs Inc., 1 μg/μL solution in 10 mM Tris-HCl (pH 8.0), and 1 mM EDTA buffer) was diluted to a concentration of 0.01 μg/μL. The solution containing cleavage agent, DNA (30 μM/bp) in 20 mM sodium phosphate buffer was incubated for 1 hour at 30° C. Samples were placed on ice at a distance of 20 cm from 200 W Hg—Xe lamp (Spectra-Physics, Laser & Photonics Oriel Instruments with long pass filter with 324 nm cut-off wavelength). Electrophoretic Analysis. The gel electrophoresis was carried out in 1×TBE buffer at 80 V using Miligel FisherBiotech Horizontal Electrophoresis System. All gels were run on 1% agarose slab gels. Before loading, the DNA samples were mixed with 0.33 volume of tracking dye containing bromophenol blue (0.25%) and glycerol (30%) in water. After staining in ethidium bromide solution (2 μg/ml) for 1 hour, the gel was washed with water and pictures were taken with Polaroid 3000ISO type 667 film. The relative quantities of the supercoiled, nicked, and linear DNA were calculated by integrating the “area” of each spot by the image analyzer software Total/Lab (Nonlinear Dynamics Ltd., UK). The amount of supercoiled DNA was multiplied by factor of 1.4 to account for reduced ethidium bromide intercalation into supercoiled DNA. pH titration by ^1H-NMR. pH* of compound 8 (3 mM) solution in D2O containing 0.05 wt % 3-(trimethylsilyl)propionic-2,2,3,3-d4 acid, sodium salt (TSP-d4) was adjusted with 10 wt % DCI and NaOD in D2O at 25° C. under argon purged condition. Spectrometric determinations of pKa. pH of 10 μM of compound solution in H2O was adjusted with 10, 100 mM HCl (aq) and NaOH (aq) solution under argon purged condition. Excitation wavelength was 330 nm and polymethacrylate fluorimeter cuvettes were used. Absorbance and fluorescence titration with DNA. The concentrations of calf thymus DNA stock solution was determined spectophotometrically using the following molar absorptovity values: 1.32×10^4 M^−1 cm^−1 (per base pair) at 260 nm. All experiments were done in 20 mM sodium phosphate buffer at 25° C. and polymethacrylate fluorimeter cuvettes were used. The same amount of DNA was added to both sample and reference cuvettes during UV/Vis titration. Determination of excited state lifetimes. The concentration of compound solution was 10 μM in 20 mM sodium phosphate buffer. The photoluminescence lifetime measurements were conducted by exciting the samples with the output of a Nd:VO—4 (Spectra-Physics Vanguard, 2 W, 532 nm, 76 MHz, 10 ps) pumped R6G dye laser (Coherent 702-1). The output of the dye laser (600 nm, Rhodamine 6G) was cavity dumped at 1.9 MHz and frequency doubled using a BBO crystal to excite the fluorophore (the excitation wavelength used was 290 nm). Samples were excited with <1 mW power and the emission was collected at right angles onto a Chromex S3 500 is 0.5 m imaging monochromator with a 50 g/mm grating and 0.5 nm resolution. Output of the monochromator is focused into a Hamamatsu C5680 streak camera operating at a 20 ns window for the fluorophore. Intensity analysis was carried out by integrating the spectral profile in time on the streak camera. Lifetime analysis over 6-7 lifetimes of the fluorophore was conducted by binning the photoluminescence intensity collected on the streak camera over a 20 nm spectral window at the centroid value of the emission of the fluorophore. Ethidium bromide displacement. […]

A short description of series [4]: UV-absorption titration determination of pKa. The series is classed as physicochemical. To be noted: absorption; α-amino group (4, 6), ε-amino group (7). As for the experimental part:
as §1

The subject of series [5] is DNA. To be noted: cited from earlier work.

The text below walks through data of patent US8334403B1, “C-lysine conjugates as pH-controlled, light-activated reagents for double stranded DNA cleavage and associated methods” (Florida State University Research Foundation, Inc., priority 2005, dated 2012).

Each structure is given as a SMILES string. Where two headings read alike, the source gives them in different places.

Regarding `Cl.Cl.NCCCC[C@H](N)C(=O)Nc1ccc(C#Cc2ccccc2)cc1` [Compound 5, (S)-2,6-Diaminohexanoic acid [4-(phenylethynyl)-phenyl]-amide dihydrochloride], the “cytotoxicity in the dark” value in series [1] is “considerably less cytotoxic in the dark”.

As for `C[C@H](N)C(=O)Nc1ccc(C#Cc2c(F)c(F)nc(F)c2F)cc1.Cl` [Compound 6, (S)-2-Amino-propanoic acid [4-(2,3,5,6-tetrafluoro-pyridin-4-ylethynyl)-phenyl]-amide hydrochloride], the pKa1 in series [2] was determined as 7.6; in series [4], 7.4. Further, the ds-cleavage entry in series [3] is “do not produce any ds-cleavage”.

In the case of `COc1cc(CCN)c2c(c1OC)SS[S+]2[O-]` (stereo not drawn) [Varacin C], the “extent of single stranded (ss) DNA cleavage” value in series [5] (pH 5.5, 5 μM antibiotic loading) was 47%; in series [5] (pH 7), 23%.
